According to article PMC8469457, “Proline-Specific Fungal Peptidases: Genomic Analysis and Identification of Secreted DPP4 in Alkaliphilic and Alkalitolerant Fungi” (Journal of Fungi, 2021):

Biological target: T1, DPP4 of S. alkalinus F11 (secreted DPP4, culture filtrate) (Sodiomyces alkalinus, UniProt A0A3N2PX53)
T1 construct: gene SODALDRAFT_276413; native secreted enzyme, unpurified 14-day culture filtrate; link of ROT38925.1 to the assayed activity is inferred
T1 sequence (A0A3N2PX53 27-782): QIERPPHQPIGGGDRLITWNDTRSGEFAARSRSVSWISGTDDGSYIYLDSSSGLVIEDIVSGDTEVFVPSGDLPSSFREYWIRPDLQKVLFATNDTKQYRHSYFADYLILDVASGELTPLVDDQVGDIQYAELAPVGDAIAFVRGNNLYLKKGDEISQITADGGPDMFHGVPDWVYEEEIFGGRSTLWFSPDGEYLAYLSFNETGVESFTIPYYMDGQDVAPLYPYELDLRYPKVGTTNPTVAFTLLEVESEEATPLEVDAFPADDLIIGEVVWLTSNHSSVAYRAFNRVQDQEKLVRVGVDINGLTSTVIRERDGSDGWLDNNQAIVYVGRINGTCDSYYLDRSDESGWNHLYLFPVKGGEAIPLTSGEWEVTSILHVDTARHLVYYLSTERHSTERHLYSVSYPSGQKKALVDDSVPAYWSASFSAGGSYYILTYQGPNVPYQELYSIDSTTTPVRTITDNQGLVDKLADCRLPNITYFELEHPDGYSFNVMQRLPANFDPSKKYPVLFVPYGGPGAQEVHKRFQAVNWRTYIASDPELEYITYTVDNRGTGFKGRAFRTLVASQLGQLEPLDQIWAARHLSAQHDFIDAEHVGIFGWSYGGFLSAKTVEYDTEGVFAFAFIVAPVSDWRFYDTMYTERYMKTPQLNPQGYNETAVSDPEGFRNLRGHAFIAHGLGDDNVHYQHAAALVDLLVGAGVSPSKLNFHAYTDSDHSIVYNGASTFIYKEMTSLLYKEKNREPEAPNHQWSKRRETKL
Assay: residual hydrolysis of Ala-Pro-pNa, absorbance at […] nm, culture filtrate
Format: biochemical
Details: read-out: % residual activity at 0.25 mM

CC[C@H](C)[C@H](N)C(=O)N1CCC[C@H]1C(=O)N[C@H](C(=O)O)[C@@H](C)CC [diprotin A]
remaining activity at 250 µM: 3.2%
